Assay results taken from PubChem BioAssay AID276 (DTP/NCI, 2004).
“And” between values parts separate entries of the source, which are not always exact repeats. Identical values can stand only once. Toxic doses and inconclusive results are not listed. Positions of bridges follow the written chain, without caps; N, C: chain ends. Residues, ends and D or L forms follow the SMILES beside them.

Test system: B6C3F1 mice, Lewis lung carcinoma iv, survival T/C
Test: NCI In Vivo Anticancer Drug Screen. Data for tumor model Lewis Lung Carcinoma (intravenous) in B6C3F1 mice
Conditions: endpoint: median survival time, higher = longer survival
Method in brief: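 Tumors were transplanted into mice, which were then dosed with compound or vehicle. Survival was recorded in each group, and the treated figure was divided by the control figure.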

[1] = dose: 12.5 mg/kg/injection, schedule: Q01DX009 (ip), vehicle: saline with Tween-80
[2] = dose: 25.0 mg/kg/injection, schedule: Q01DX009 (ip), vehicle: saline with Tween-80
[3] = dose: 50.0 mg/kg/injection, schedule: Q01DX009 (ip), vehicle: saline with Tween-80
[4] = dose: 100.0 mg/kg/injection, schedule: Q01DX009 (ip), vehicle: saline with Tween-80
[5] = dose: 200.0 mg/kg/injection, schedule: Q01DX009 (ip), vehicle: saline with Tween-80
[6] = dose: 3.12 mg/kg/injection, schedule: Q01DX009 (ip), vehicle: water
[7] = dose: 6.25 mg/kg/injection, schedule: Q01DX009 (ip), vehicle: water
[8] = dose: 12.5 mg/kg/injection, schedule: Q01DX009 (ip), vehicle: water
[9] = dose: 25.0 mg/kg/injection, schedule: Q01DX009 (ip), vehicle: water
[10] = dose: 3.12 mg/kg/injection, schedule: Q01DX009 (ip), vehicle: saline with Tween-80
[11] = dose: 6.25 mg/kg/injection, schedule: Q01DX009 (ip), vehicle: saline with Tween-80
[12] = dose: 6.25 mg/kg/injection, schedule: Q01DX009 (ip), vehicle: Klucel (hydroxypropylcellulose) (HPC)

## C[C@@]1(CO)[C@H](O)CC[C@@]2(C)[C@H]1CC[C@H]1C[C@@H]3C[C@@]12CC[C@@]3(O)COC(=O)CN
dose: 0.2 mg/kg/injection, schedule: Q01DX009 (ip), vehicle: saline + alcohol
  T/C: 107 % of control
dose: 0.4 mg/kg/injection, schedule: Q01DX009 (ip), vehicle: saline + alcohol
  T/C: 109 % of control
dose: 0.8 mg/kg/injection, schedule: Q01DX009 (ip), vehicle: saline + alcohol
  T/C: 103 % of control
dose: 1.6 mg/kg/injection, schedule: Q01DX009 (ip), vehicle: saline + alcohol
  T/C: 103 % of control
dose: 12.5 micrograms/kg/injection, schedule: Q01DX009 (ip), vehicle: saline + alcohol
  T/C: 113 % of control
dose: 25.0 micrograms/kg/injection, schedule: Q01DX009 (ip), vehicle: saline + alcohol
  T/C: 120 % of control
dose: 50.0 micrograms/kg/injection, schedule: Q01DX009 (ip), vehicle: saline + alcohol
  T/C: 102 % of control
dose: 100.0 micrograms/kg/injection, schedule: Q01DX009 (ip), vehicle: saline + alcohol
  T/C: 95 % of control
dose: 200.0 micrograms/kg/injection, schedule: Q01DX009 (ip), vehicle: saline + alcohol
  T/C: 98 % of control

## O=CC(O)C(O)C(O)C(O)C(=O)O.[NH-]C1CCCCC1[NH-].[Pt+2] (configuration not stated)
dose: 0.2 mg/kg/injection, schedule: Q01DX009 (ip), vehicle: saline
  T/C: 93 % of control
dose: 0.39 mg/kg/injection, schedule: Q01DX009 (ip), vehicle: saline
  T/C: 94 % of control
dose: 0.78 mg/kg/injection, schedule: Q01DX009 (ip), vehicle: saline
  T/C: 93 % of control
dose: 1.56 mg/kg/injection, schedule: Q01DX009 (ip), vehicle: saline
  T/C: 106 % of control

## C=C(C)/C([O-])=N/[N+](C)(C)CC(O)CCCCCCCCCCCC (configuration not stated)
dose: 1.56 mg/kg/injection, schedule: Q01DX001 (ip), vehicle: saline
  T/C: 96 % of control
dose: 3.12 mg/kg/injection, schedule: Q01DX001 (ip), vehicle: saline
  T/C: 104 % of control
dose: 6.25 mg/kg/injection, schedule: Q01DX001 (ip), vehicle: saline
  T/C: 98 % of control
dose: 12.5 mg/kg/injection, schedule: Q01DX001 (ip), vehicle: saline
  T/C: 109 % of control
dose: 25.0 mg/kg/injection, schedule: Q01DX001 (ip), vehicle: saline
  T/C: 103 % of control and 106 % of control
dose: 50.0 mg/kg/injection, schedule: Q01DX001 (ip), vehicle: saline
  T/C: 98 % of control and 100 % of control
dose: 100.0 mg/kg/injection, schedule: Q01DX001 (ip), vehicle: saline
  T/C: 95 % of control
dose: 200.0 mg/kg/injection, schedule: Q01DX001 (ip), vehicle: saline
  T/C: 97 % of control

## CC[C@H](CC[C@@H](C)C1CC[C@H]2[C@@H]3CC=C4C[C@@H](OP(=O)(N5CC5)N5CC5)CC[C@]4(C)[C@H]3CC[C@]12C)C(C)C (some centres not stated)
[1]
  T/C: 100 % of control
[2]
  T/C: 95 % of control
[3]
  T/C: 97 % of control
[4]
  T/C: 100 % of control
[5]
  T/C: 95 % of control

## NC(=O)/C=C/c1c[nH]c2nccnc12
dose: 1.56 mg/kg/injection, schedule: Q01DX009 (ip), vehicle: water
  T/C: 94 % of control
[6]
  T/C: 88 % of control
[7]
  T/C: 92 % of control
[8]
  T/C: 94 % of control
[9]
  T/C: 94 % of control

## CCC(C)C1NC(=O)C(CC(C)C)NC(=O)C(C(C)C)NC(=O)C2CSSCC(NC1=O)C(=O)N2 (configuration not stated) (cyclo(CCVLI); disulfide 1-2; configuration not given here)
dose: 31.25 micrograms/kg/injection, schedule: Q01DX009 (ip), vehicle: Klucel (hydroxypropylcellulose) (HPC)
  T/C: 93 % of control
dose: 62.5 micrograms/kg/injection, schedule: Q01DX009 (ip), vehicle: Klucel (hydroxypropylcellulose) (HPC)
  T/C: 99 % of control
dose: 125.0 micrograms/kg/injection, schedule: Q01DX009 (ip), vehicle: Klucel (hydroxypropylcellulose) (HPC)
  T/C: 93 % of control
dose: 250.0 micrograms/kg/injection, schedule: Q01DX009 (ip), vehicle: Klucel (hydroxypropylcellulose) (HPC)
  T/C: 98 % of control
dose: 500.0 micrograms/kg/injection, schedule: Q01DX009 (ip), vehicle: Klucel (hydroxypropylcellulose) (HPC)
  T/C: 88 % of control
dose: 1000.0 micrograms/kg/injection, schedule: Q01DX009 (ip), vehicle: Klucel (hydroxypropylcellulose) (HPC)
  T/C: 100 % of control

## ClC1=C(Cl)C(Cl)=C(Cl)C1=Cc1ccccc1
[10]
  T/C: 94 % of control and 101 % of control
[11]
  T/C: 98 % of control and 108 % of control
[1]
  T/C: 98 % of control
[2]
  T/C: 97 % of control
[3]
  T/C: 105 % of control

## CC1(C)CC(=O)C(CSC(=O)c2ccccc2)C(=O)C1
dose: 3.13 mg/kg/injection, schedule: Q01DX009 (ip), vehicle: Klucel (hydroxypropylcellulose) (HPC)
  T/C: 101 % of control
[12]
  T/C: 95 % of control
dose: 12.5 mg/kg/injection, schedule: Q01DX009 (ip), vehicle: Klucel (hydroxypropylcellulose) (HPC)
  T/C: 95 % of control
dose: 25.0 mg/kg/injection, schedule: Q01DX009 (ip), vehicle: Klucel (hydroxypropylcellulose) (HPC)
  T/C: 103 % of control
dose: 50.0 mg/kg/injection, schedule: Q01DX009 (ip), vehicle: Klucel (hydroxypropylcellulose) (HPC)
  T/C: 103 % of control

## CCCN1COC(OCC)C(C)(C)C1 (configuration not stated)
[1]
  T/C: 103 % of control and 111 % of control
[2]
  T/C: 93 % of control and 99 % of control
[3]
  T/C: 106 % of control and 112 % of control
[4]
  T/C: 100 % of control and 101 % of control

## Cn1c(=O)[nH]c2nncnc2c1=O
[6]
  T/C: 97 % of control
[7]
  T/C: 105 % of control
[8]
  T/C: 102 % of control
[9]
  T/C: 94 % of control
dose: 50.0 mg/kg/injection, schedule: Q01DX009 (ip), vehicle: water
  T/C: 90 % of control

## C/C(=N\N=C(/[Se])N1CC2CCC(CC2)C1)c1ccccn1
dose: 1.5 mg/kg/injection, schedule: Q01DX009 (ip), vehicle: Klucel (hydroxypropylcellulose) (HPC)
  T/C: 106 % of control
dose: 3.0 mg/kg/injection, schedule: Q01DX009 (ip), vehicle: Klucel (hydroxypropylcellulose) (HPC)
  T/C: 103 % of control
[12]
  T/C: 110 % of control

## COc1cc2c[n+](C)c3c(c2cc1OC)Cc1cc2c(cc1-3)OCO2
dose: 12.5 mg/kg/injection, schedule: Q01DX009 (ip), vehicle: suspension in saline
  T/C: 97 % of control
dose: 25.0 mg/kg/injection, schedule: Q01DX009 (ip), vehicle: suspension in saline
  T/C: 114 % of control
dose: 50.0 mg/kg/injection, schedule: Q01DX009 (ip), vehicle: suspension in saline
  T/C: 119 % of control

## Nc1nc(N)c2cc(S(=O)(=O)c3ccccc3)ccc2n1
[2]
  T/C: 98 % of control
[3]
  T/C: 98 % of control
[4]
  T/C: 99 % of control

## C=C1C(=O)OC2CC(C)C3C4OC4C(O)C3(C)C(O)C12 (configuration not stated)
dose: 5.62 mg/kg/injection, schedule: Q01DX009 (ip), vehicle: saline
  T/C: 100 % of control
dose: 11.25 mg/kg/injection, schedule: Q01DX009 (ip), vehicle: saline
  T/C: 102 % of control
dose: 22.5 mg/kg/injection, schedule: Q01DX009 (ip), vehicle: saline
  T/C: 100 % of control
dose: 45.0 mg/kg/injection, schedule: Q01DX009 (ip), vehicle: saline
  T/C: 108 % of control
dose: 90.0 mg/kg/injection, schedule: Q01DX009 (ip), vehicle: saline
  T/C: 105 % of control

## CNC(=O)c1cccc2c(Nc3ccc(NS(C)(=O)=O)cc3OC)c3cccc(C)c3nc12
dose: 3.0 mg/kg/injection, schedule: Q04DX003 (ip), vehicle: saline + alcohol
  T/C: 114 % of control
dose: 3.12 mg/kg/injection, schedule: Q04DX003 (ip), vehicle: saline + alcohol
  T/C: 118 % of control
dose: 6.0 mg/kg/injection, schedule: Q04DX003 (ip), vehicle: saline + alcohol
  T/C: 156 % of control
dose: 12.5 mg/kg/injection, schedule: Q04DX003 (ip), vehicle: saline + alcohol
  T/C: 181 % of control and 309 % of control (2×)
dose: 12.5 mg/kg/injection, schedule: Q04DX003 (ip), vehicle: water
  T/C: 178 % of control
dose: 25.0 mg/kg/injection, schedule: Q04DX003 (ip), vehicle: water
  T/C: 260 % of control

## C=C1N(C)c2ccccc2C1(C)C
[10]
  T/C: 107 % of control
[11]
  T/C: 102 % of control
[1]
  T/C: 109 % of control
[2]
  T/C: 98 % of control
[3]
  T/C: 110 % of control

## CC(=O)C(=O)O.CC(=O)C(=O)O.[NH-]C1CCCCC1[NH-].[Pt+2] (configuration not stated)
dose: 3.12 mg/kg/injection, schedule: Q01DX009 (ip), vehicle: other
  T/C: 98 % of control
dose: 6.25 mg/kg/injection, schedule: Q01DX009 (ip), vehicle: other
  T/C: 109 % of control
dose: 12.5 mg/kg/injection, schedule: Q01DX009 (ip), vehicle: other
  T/C: 96 % of control

## CCN(CC)CCNc1ccc(C)c2sc3ccc(O)cc3c(=O)c12
[1]
  T/C: 95 % of control
[2]
  T/C: 105 % of control
[3]
  T/C: 102 % of control

## CCC(=O)Sc1ccccc1C(=O)Nc1ccc(Cl)cc1
[2]
  T/C: 94 % of control
[3]
  T/C: 100 % of control
[4]
  T/C: 107 % of control
[5]
  T/C: 89 % of control
dose: 400.0 mg/kg/injection, schedule: Q01DX009 (ip), vehicle: saline with Tween-80
  T/C: 105 % of control
